Series [1] relates to WT LdtR. Format: binding, Liberibacter asiaticus.
For series [2], the system named is S. meliloti strain SMP2B (ΔldtRSMc-pBBR1MCS-5::LdtR). Format: cell-based.
The target in the next series is LdtR Wild type (Candidatus Liberibacter asiaticus, UniProt A0ABN4AZS1).
Series [3] concerns S. meliloti strain SMP5 (1021-pBBR1MCS-5). Format: cell-based, Sinorhizobium meliloti.
Series [4] deals with WT LdtR, lacZ reporter in B. subtilis strain BS6. Format: cell-based, Bacillus subtilis.
Series [5] concerns WT LdtR. The class given is biochemical, Liberibacter asiaticus.
The subject of series [6] is S. meliloti strain SMP2A (ΔldtRSMc-pBBR1MCS-5). Format: cell-based.
A further series concerns LdtR. The following applies: cited from earlier work.
Another series has as its system B. subtilis cells. The class given is cell-based, Bacillus subtilis.
The target of the next series is ST1710. To be noted: read-out: affinity value; cited from earlier work.
In series [7] the target is LdtR wild type (Liberibacter asiaticus). The series is described as follows: SEC. Background: Size exclusion chromatography separates by hydrodynamic size, large species first.
The subject of series [8] is LdtR WT (Liberibacter asiaticus). Put plainly: EMSA.

For `CCc1oc2ccccc2c1C(=O)c1cc(Br)c(O)c(Br)c1` [benzbromarone], in the series on WT LdtR [1], the “change in melting temperature (ΔTm)” value is -1.8 ± 0.2 °C and the “decrease of melting temperature” value amounted to 3.6 ± 0.2 °C. Further, in [2], the “Growth rate constant, k” value was 0.045 ± 0.002 generations/h; the Mean generation time is listed as 22.2 h; the “increase of the duplication time on addition of benzbromarone” value is reported as 25%. Moreover, on LdtR Wild type, the N amounted to 0.34 ± 0.08, the ΔG is on record as -7.5 kcal/mol, the ΔH is -3.0 ± 1.0 kcal/mol and the ΔS is reported as 14.9 cal/mol/deg. In series [3], the “Growth rate constant, k” value is 0.044 ± 0.003 generations/h; the Mean generation time turned out to be 22.7 h; the “increase of the duplication time on addition of benzbromarone” value was 39%. Also, the “reduction of β-galactosidase activity” value in series [4] was found to be 40%. Also, the “excess of benzbromarone at which the LdtR:DNA complex is disrupted” value in the series on WT LdtR [5] was found to be 10 fold excess. For the same compound, in [6], the “Growth rate constant, k” value came out at 0.042 ± 0.002 generations/h and the Mean generation time was 23.8 h. Besides, the “effect on LdtR binding to DNA” value in the series with LdtR is “inhibitors of LdtR binding to DNA”. Also, the “concentrations found to be toxic to the cells” value in the series on B. subtilis cells is “higher than 5 μM”.

For the compound `CC[n+]1c(-c2ccccc2)c2cc(N)ccc2c2ccc(N)cc21` [ethidium], at ST1710, the Kd was 13.7 µM.

Turning to `CC[C@H](c1ccc(O)cc1)[C@@H](CC)c1ccc(O)cc1` [hexestrol], the “effect on LdtR binding to DNA” value in the series with LdtR is given as “inhibitors of LdtR binding to DNA”.

Consider `O=C(CCc1ccc(O)cc1)c1c(O)cc(O)cc1O` [phloretin], for which the “effect on LdtR binding to DNA” value in the series with LdtR is recorded as “inhibitors of LdtR binding to DNA”.

Usually stoichiometry N stands for the number of molecules, sites or subunits per partner or assembly. The compound LdtR wild type (natural protein) had a stoichiometry N in series [7] of 2.

Compound PldtP registered a K half in [8] of 200 nM.
